Experimental data as given in the NIST ThermoML archive (doi:10.1016/j.jct.2017.07.008).
Values joined by “and” are separate entries in the source; they are usually repeats but may differ in a detail not shown here. Equal values may be shown once.

Conditions: for mass density / viscosity / speed of sound / vapor or sublimation pressure: Liquid; for mass density: Vibrating tube method; for surface tension liquid-gas: Drop volume; for viscosity: Capillary tube (Ostwald / Ubbelohde) method; for speed of sound: Frequency=3 MHz, Single path-length method; for vapor or sublimation pressure: Ebulliometric method (Recirculating still)

OCc1cccs1 [2-thiophenemethanol]
Conditions | mass density | speed of sound [m/s] | viscosity [mPa·s]
313.15 K, 55000 kPa | 1216.51 kg/m3 | – | –
313.15 K, 60000 kPa | 1218.68 kg/m3 | – | –
313.15 K, 65000 kPa | 1220.8 kg/m3 | – | –
315.65 K, 100 kPa | 1186.63 kg/m3 | 1450.4 | 4.147
318.15 K, 100 kPa | 1184.39 kg/m3 | 1443.2 | 3.87
318.15 K, 2000 kPa | 1185.52 kg/m3 | – | –
318.15 K, 5000 kPa | 1187.27 kg/m3 | – | –
318.15 K, 7000 kPa | 1188.42 kg/m3 | – | –
318.15 K, 10000 kPa | 1190.12 kg/m3 | – | –
318.15 K, 15000 kPa | 1192.88 kg/m3 | – | –
318.15 K, 20000 kPa | 1195.57 kg/m3 | – | –
318.15 K, 25000 kPa | 1198.18 kg/m3 | – | –
318.15 K, 30000 kPa | 1200.72 kg/m3 | – | –
318.15 K, 35000 kPa | 1203.2 kg/m3 | – | –
318.15 K, 40000 kPa | 1205.62 kg/m3 | – | –
318.15 K, 45000 kPa | 1207.98 kg/m3 | – | –
318.15 K, 50000 kPa | 1210.29 kg/m3 | – | –
318.15 K, 55000 kPa | 1212.54 kg/m3 | – | –
318.15 K, 60000 kPa | 1214.74 kg/m3 | – | –
318.15 K, 65000 kPa | 1216.9 kg/m3 | – | –
320.65 K, 100 kPa | 1182.14 kg/m3 | 1436 | 3.615
323.15 K, 100 kPa | 1179.88 kg/m3 | 1428.8 | 3.355
323.15 K, 2000 kPa | 1181.03 kg/m3 | – | –
323.15 K, 5000 kPa | 1182.82 kg/m3 | – | –
323.15 K, 7000 kPa | 1183.99 kg/m3 | – | –
323.15 K, 10000 kPa | 1185.73 kg/m3 | – | –
323.15 K, 15000 kPa | 1188.55 kg/m3 | – | –
323.15 K, 20000 kPa | 1191.29 kg/m3 | – | –
323.15 K, 25000 kPa | 1193.95 kg/m3 | – | –
323.15 K, 30000 kPa | 1196.55 kg/m3 | – | –
323.15 K, 35000 kPa | 1199.07 kg/m3 | – | –
323.15 K, 40000 kPa | 1201.53 kg/m3 | – | –
323.15 K, 45000 kPa | 1203.93 kg/m3 | – | –
323.15 K, 50000 kPa | 1206.28 kg/m3 | – | –
323.15 K, 55000 kPa | 1208.56 kg/m3 | – | –
323.15 K, 60000 kPa | 1210.8 kg/m3 | – | –
323.15 K, 65000 kPa | 1212.99 kg/m3 | – | –
325.65 K, 100 kPa | 1177.63 kg/m3 | 1421.6 | 3.17
328.15 K, 100 kPa | 1175.35 kg/m3 and 1175.36 kg/m3 | 1414.5 | 2.957
328.15 K, 2000 kPa | 1176.53 kg/m3 | – | –
328.15 K, 5000 kPa | 1178.35 kg/m3 | – | –
328.15 K, 7000 kPa | 1179.55 kg/m3 | – | –
328.15 K, 10000 kPa | 1181.33 kg/m3 | – | –
328.15 K, 15000 kPa | 1184.21 kg/m3 | – | –
328.15 K, 20000 kPa | 1187 kg/m3 | – | –
328.15 K, 25000 kPa | 1189.72 kg/m3 | – | –
328.15 K, 30000 kPa | 1192.36 kg/m3 | – | –
328.15 K, 35000 kPa | 1194.93 kg/m3 | – | –
328.15 K, 40000 kPa | 1197.44 kg/m3 | – | –
328.15 K, 45000 kPa | 1199.88 kg/m3 | – | –
328.15 K, 50000 kPa | 1202.26 kg/m3 | – | –
328.15 K, 55000 kPa | 1204.58 kg/m3 | – | –
328.15 K, 60000 kPa | 1206.86 kg/m3 | – | –
328.15 K, 65000 kPa | 1209.08 kg/m3 | – | –
330.65 K, 100 kPa | 1173.09 kg/m3 | 1407.3 | 2.785
333.15 K, 100 kPa | 1170.8 kg/m3 and 1170.82 kg/m3 | 1400.1 | 2.628
333.15 K, 2000 kPa | 1172 kg/m3 | – | –
333.15 K, 5000 kPa | 1173.87 kg/m3 | – | –
333.15 K, 7000 kPa | 1175.1 kg/m3 | – | –
333.15 K, 10000 kPa | 1176.91 kg/m3 | – | –
333.15 K, 15000 kPa | 1179.85 kg/m3 | – | –
333.15 K, 20000 kPa | 1182.7 kg/m3 | – | –
333.15 K, 25000 kPa | 1185.47 kg/m3 | – | –
333.15 K, 30000 kPa | 1188.16 kg/m3 | – | –
333.15 K, 35000 kPa | 1190.78 kg/m3 | – | –
333.15 K, 40000 kPa | 1193.33 kg/m3 | – | –
333.15 K, 45000 kPa | 1195.82 kg/m3 | – | –
333.15 K, 50000 kPa | 1198.24 kg/m3 | – | –
333.15 K, 55000 kPa | 1200.6 kg/m3 | – | –
333.15 K, 60000 kPa | 1202.91 kg/m3 | – | –
333.15 K, 65000 kPa | 1205.17 kg/m3 | – | –
335.65 K, 100 kPa | 1168.53 kg/m3 | 1392.9 | 2.486
338.15 K, 100 kPa | 1166.23 kg/m3 and 1166.25 kg/m3 | 1385.8 | 2.372
338.15 K, 2000 kPa | 1167.46 kg/m3 | – | –
338.15 K, 5000 kPa | 1169.37 kg/m3 | – | –
338.15 K, 7000 kPa | 1170.63 kg/m3 | – | –
338.15 K, 10000 kPa | 1172.48 kg/m3 | – | –
338.15 K, 15000 kPa | 1175.48 kg/m3 | – | –
338.15 K, 20000 kPa | 1178.39 kg/m3 | – | –
338.15 K, 25000 kPa | 1181.22 kg/m3 | – | –
338.15 K, 30000 kPa | 1183.96 kg/m3 | – | –
338.15 K, 35000 kPa | 1186.63 kg/m3 | – | –
338.15 K, 40000 kPa | 1189.22 kg/m3 | – | –
338.15 K, 45000 kPa | 1191.75 kg/m3 | – | –
338.15 K, 50000 kPa | 1194.21 kg/m3 | – | –
338.15 K, 55000 kPa | 1196.62 kg/m3 | – | –
338.15 K, 60000 kPa | 1198.96 kg/m3 | – | –
338.15 K, 65000 kPa | 1201.25 kg/m3 | – | –

Conditions | surface tension liquid-gas [mN/m] | vapor or sublimation pressure [kPa]
315.65 K | 41.73 | –
318.15 K | 41.48 | –
320.65 K | 41.22 | –
323.15 K | 40.95 | –
325.65 K | 40.67 | –
328.15 K | 40.4 | –
330.65 K | 40.1 | –
333.15 K | 39.8 | –
335.65 K | 39.51 | –
338.15 K | 39.24 | –
351.15 K | – | 0.545
354.25 K | – | 0.665
357.17 K | – | 0.785
361.3 K | – | 1.025
365.19 K | – | 1.275
366.38 K | – | 1.355
367.49 K | – | 1.415
368.14 K | – | 1.475
369.77 K | – | 1.61
372.56 K | – | 1.88
373.21 K | – | 1.96
377.74 K | – | 2.44
382.13 K | – | 3.06
386.07 K | – | 3.675
387.56 K | – | 3.93
388.56 K | – | 4.15
391.84 K | – | 4.77
393.87 K | – | 5.25
397.94 K | – | 6.25
399.72 K | – | 6.8
402.41 K | – | 7.6
404.37 K | – | 8.25
406.56 K | – | 9
408.27 K | – | 9.665
411.5 K | – | 10.96
415.06 K | – | 12.6
416.56 K | – | 13.38
418.63 K | – | 14.47
420.23 K | – | 15.36
422.21 K | – | 16.51
424.64 K | – | 18.05
426.07 K | – | 19
428.27 K | – | 20.52
429.37 K | – | 21.34
431.17 K | – | 22.77
432.56 K | – | 23.88
433.65 K | – | 24.78
